According to the supplement of paper PMC10307832:

Legend:
Assay in all cases: relative viability (nuclei count vs DMSO), 5 days (fraction); higher = more cells survive
Daporinad + Trametinib = compound: O=C(/C=C/c1cccnc1)NCCCCC1CCN(C(=O)c2ccccc2)CC1 [Daporinad] + CC(=O)Nc1cccc(-n2c(=O)n(C3CC3)c(=O)c3c(Nc4ccc(I)cc4F)n(C)c(=O)c(C)c32)c1 [Trametinib] (partner 0.02 µM)
Method in brief: (§1)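 Relative viability equals treated-well nuclei counts divided by vehicle-well nuclei counts. Counts came from 4× images of lung cancer cell lines grown in 1536-well plates for 5 days after pin-tool dosing on the day after seeding. Dosing used one drug alone or a fixed anchor-drug dose plus five library-drug doses (not always all listed) in √10 steps, and values are medians of duplicate plates.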

Daporinad + Pictilisib = compound: O=C(/C=C/c1cccnc1)NCCCCC1CCN(C(=O)c2ccccc2)CC1 [Daporinad] + CS(=O)(=O)N1CCN(Cc2cc3nc(-c4cccc5[nH]ncc45)nc(N4CCOCC4)c3s2)CC1 [Pictilisib] (partner 1 µM)
Method in brief: as §1

Daporinad + Foretinib = compound: O=C(/C=C/c1cccnc1)NCCCCC1CCN(C(=O)c2ccccc2)CC1 [Daporinad] + COc1cc2c(Oc3ccc(NC(=O)C4(C(=O)Nc5ccc(F)cc5)CC4)cc3F)ccnc2cc1OCCCN1CCOCC1 [Foretinib] (partner 0.25 µM)
Method in brief: as §1

R406 + Dasatinib = compound: COc1cc(Nc2ncc(F)c(Nc3ccc4c(n3)NC(=O)C(C)(C)O4)n2)cc(OC)c1OC [R406] + Cc1nc(Nc2ncc(C(=O)Nc3c(C)cccc3Cl)s2)cc(N2CCN(CCO)CC2)n1 [Dasatinib] (partner 0.075 µM)
Method in brief: as §1

Row | Cell Line | relative viability (Daporinad + Trametinib; first compound 0.0005 µM) | relative viability (Daporinad + Trametinib; first compound 0.001581 µM) | relative viability (Daporinad + Trametinib; first compound 0.005 µM) | relative viability (Daporinad + Trametinib; first compound 0.01581 µM) | relative viability (Daporinad + Pictilisib; first compound 0.0005 µM) | relative viability (Daporinad + Pictilisib; first compound 0.001581 µM) | relative viability (Daporinad + Pictilisib; first compound 0.005 µM) | relative viability (Daporinad + Pictilisib; first compound 0.01581 µM) | relative viability (Daporinad + Foretinib; first compound 0.0005 µM) | relative viability (Daporinad + Foretinib; first compound 0.001581 µM) | relative viability (Daporinad + Foretinib; first compound 0.005 µM) | relative viability (Daporinad + Foretinib; first compound 0.01581 µM) | relative viability (R406 + Dasatinib; first compound 0.08 µM) | relative viability (R406 + Dasatinib; first compound 0.253 µM) | relative viability (R406 + Dasatinib; first compound 0.8 µM) | relative viability (R406 + Dasatinib; first compound 2.53 µM) | relative viability (R406 + Dasatinib; first compound 8 µM)
1 | NCI-H1975 | 0.329 | 0.286 | 0.341 | 0.454 | 0.267 | 0.333 | 0.315 | 0.304 | 0.892 | 0.952 | 0.966 | 0.931 | 0.377 | 0.479 | 0.379 | 0.174 | 0.112
2 | NCI-H1993 | 0.485 | 0.514 | 0.633 | 0.555 | 0.925 | 0.684 | 0.798 | 0.869 | 0.749 | 0.741 | 0.746 | 0.918 | 0.564 | 0.631 | 0.704 | 0.316 | 0.453
3 | SK-LU-1 | 0.48 | 0.522 | 0.55 | 0.615 | 0.482 | 0.601 | 0.637 | 0.595 | 0.908 | 0.872 | 0.922 | 0.829 | 0.164 | 0.174 | 0.186 | 0.0685 | 0.0703
4 | NCI-H23 | 0.395 | 0.382 | 0.412 | 0.342 | 0.59 | 0.502 | 0.446 | 0.347 | 0.898 | 1.02 | 0.991 | 0.611 | 0.7 | 0.878 | 0.902 | – | 0.748
5 | HCC-366 | 0.332 | – | 0.376 | 0.409 | 0.14 | 0.167 | 0.152 | 0.201 | 0.962 | 0.844 | 0.972 | 0.959 | 0.62 | 0.799 | 0.735 | 0.546 | 0.235
6 | EMC-BAC-2 | 0.868 | 0.935 | 0.8 | 0.433 | 0.628 | 0.567 | 0.485 | 0.319 | 1.14 | 1.1 | 0.518 | 0.314 | 0.293 | 0.331 | 0.385 | 0.186 | 0.173
7 | NCI-H2405 | 0.69 | 0.664 | 0.647 | 0.509 | 0.505 | 0.485 | 0.5 | 0.377 | 1.16 | 1.08 | 1.13 | 1.05 | 0.19 | 0.226 | 0.224 | 0.198 | 0.142
8 | NCI-H1944 | 0.449 | 0.464 | 0.469 | 0.399 | 0.366 | 0.346 | 0.389 | 0.34 | 0.897 | 0.903 | 0.971 | 0.945 | 0.22 | 0.207 | 0.209 | 0.164 | 0.153
9 | NCI-H358 | 0.135 | 0.152 | 0.15 | 0.18 | 0.266 | 0.405 | 0.338 | 0.438 | 0.689 | 0.898 | 0.827 | 0.545 | 0.165 | 0.171 | 0.113 | 0.143 | 0.132
10 | EPLC-272H | 0.295 | 0.317 | 0.284 | 0.31 | 0.295 | 0.382 | 0.387 | 0.436 | 0.695 | 0.925 | 0.845 | 1.11 | 0.319 | 0.39 | 0.321 | 0.128 | 0.102
11 | NCI-H1915 | 0.28 | 0.309 | 0.284 | 0.368 | 0.967 | 1.15 | 1.13 | 0.929 | 1.16 | 1.07 | 1.17 | 1.08 | 0.301 | 0.321 | 0.31 | – | 0.269
12 | NCI-H647 | 0.456 | 0.572 | 0.603 | 0.672 | 0.403 | 0.556 | 0.489 | 0.53 | 1.32 | 1.18 | 1.06 | 1.28 | 0.168 | 0.161 | 0.251 | 0.108 | 0.0646
13 | NCI-H322M | 0.507 | 0.484 | 0.504 | 0.441 | 0.482 | 0.55 | 0.575 | 0.52 | 0.964 | 1.13 | 0.886 | 0.478 | 0.237 | 0.245 | 0.26 | 0.24 | 0.208
14 | NCI-H2228 | 0.439 | 0.18 | 0.576 | 0.531 | 0.342 | 0.358 | 0.495 | 0.464 | 0.904 | 0.82 | 1.24 | 1.09 | 0.442 | 0.695 | 0.646 | 0.195 | 0.135
15 | NCI-H650 | 1.05 | 1.14 | 1.01 | 1.27 | 0.937 | 0.962 | 1.02 | 1.05 | 1.08 | 1.09 | 1.01 | 1.08 | 0.463 | 0.513 | 0.483 | 0.426 | 0.425
16 | NCI-H2170 | 0.789 | 0.943 | 0.84 | 0.948 | 0.315 | 0.331 | 0.301 | 0.407 | 0.764 | 1.03 | 1.05 | 1.01 | 0.481 | 0.579 | 0.613 | 0.267 | 0.324

Row | Cell Line | relative viability (Daporinad + Trametinib; first compound 0.0005 µM) | relative viability (Daporinad + Trametinib; first compound 0.001581 µM) | relative viability (Daporinad + Trametinib; first compound 0.005 µM) | relative viability (Daporinad + Trametinib; first compound 0.01581 µM) | relative viability (Daporinad + Pictilisib; first compound 0.0005 µM) | relative viability (Daporinad + Pictilisib; first compound 0.001581 µM) | relative viability (Daporinad + Pictilisib; first compound 0.005 µM) | relative viability (Daporinad + Pictilisib; first compound 0.01581 µM) | relative viability (Daporinad + Foretinib; first compound 0.0005 µM) | relative viability (Daporinad + Foretinib; first compound 0.001581 µM) | relative viability (Daporinad + Foretinib; first compound 0.005 µM) | relative viability (Daporinad + Foretinib; first compound 0.01581 µM) | relative viability (R406 + Dasatinib; first compound 0.08 µM) | relative viability (R406 + Dasatinib; first compound 0.253 µM) | relative viability (R406 + Dasatinib; first compound 0.8 µM) | relative viability (R406 + Dasatinib; first compound 2.53 µM) | relative viability (R406 + Dasatinib; first compound 8 µM)
17 | NCI-H1793 | 0.362 | 0.453 | 0.525 | 0.389 | 0.221 | 0.354 | 0.38 | 0.32 | 0.738 | 0.868 | 0.956 | 0.807 | 0.407 | 0.466 | 0.423 | 0.184 | 0.164
18 | NCI-H2085 | 0.515 | – | 0.653 | 0.538 | 0.438 | 0.463 | 0.526 | 0.554 | 0.872 | 0.973 | 1.11 | 0.781 | 0.249 | 0.283 | 0.251 | 0.222 | 0.179
19 | NCI-H838 | 0.496 | 0.637 | 0.542 | 0.265 | 0.507 | 0.559 | 0.592 | 0.53 | 1.06 | 1.11 | 0.965 | 0.567 | 0.25 | 0.287 | 0.52 | 0.204 | 0.219
20 | NCI-H460 | 0.0943 | 0.147 | 0.187 | 0.206 | 0.332 | 0.368 | 0.423 | 0.535 | 1.07 | 1.04 | 0.968 | 1.02 | 0.477 | 0.584 | 0.586 | 0.323 | 0.257
21 | LOU-NH91 | 0.797 | 0.847 | 0.922 | 0.941 | 0.528 | 0.568 | 0.587 | 0.577 | 0.95 | 0.991 | 1.11 | 1.22 | 0.593 | 0.617 | 0.545 | 0.354 | 0.334
22 | NCI-H3122 | 0.165 | 0.227 | 0.213 | 0.217 | 0.446 | 0.617 | 0.677 | 0.692 | 0.869 | 0.955 | 0.988 | 1.05 | 0.743 | 0.844 | 0.832 | – | 0.491
23 | NCI-H520 | 0.639 | 0.721 | 0.185 | 0.136 | 0.346 | 0.29 | 0.29 | 0.187 | 0.815 | 0.384 | 0.324 | 0.181 | 0.209 | 0.235 | 0.223 | 0.198 | 0.189
24 | NCI-H661 | 0.665 | 0.746 | 0.52 | 0.376 | 0.412 | 0.376 | 0.487 | 0.357 | 0.999 | 1.03 | 0.671 | 0.573 | 0.847 | 0.824 | 1.1 | 0.684 | 0.402
25 | NCI-H727 | 0.398 | 0.453 | 0.375 | 0.379 | 0.359 | 0.354 | 0.414 | 0.284 | 1.01 | 0.908 | 0.899 | 0.691 | 0.347 | 0.432 | 0.369 | – | 0.3
26 | NCI-H1734 | 0.725 | 0.764 | 0.724 | 0.491 | 0.454 | 0.529 | 0.557 | 0.431 | 0.871 | 0.875 | 0.938 | 0.679 | 0.537 | 0.559 | 0.459 | 0.393 | 0.27
27 | LXF-289 | 0.569 | 0.663 | 0.689 | 0.681 | 0.714 | 0.862 | 0.879 | 0.859 | 0.892 | 1.09 | 0.968 | 0.962 | 0.229 | 0.241 | 0.234 | 0.135 | 0.0357
28 | H3255 | 0.557 | 0.637 | 0.645 | 0.71 | 0.46 | 0.488 | 0.507 | 0.469 | 0.709 | 0.688 | 0.672 | 0.992 | 0.33 | – | 0.372 | 0.285 | 0.317
29 | 201T | 0.713 | 0.731 | 0.705 | 0.735 | 0.657 | 0.675 | 0.682 | 0.635 | 1.08 | 1.14 | 1.02 | 1.16 | 0.578 | 0.548 | 0.502 | 0.467 | 0.41
30 | NCI-H2126 | 0.562 | 0.548 | 0.604 | 0.587 | 0.529 | 0.516 | 0.485 | 0.486 | 1.24 | 1.15 | 1.06 | 1.34 | 0.6 | 0.619 | 0.596 | 0.496 | 0.243
31 | HOP-62 | 0.453 | 0.427 | 0.484 | 0.422 | – | 0.846 | 0.702 | 0.668 | 0.838 | 1.01 | 1.1 | 0.639 | 0.618 | 0.73 | 0.797 | 0.729 | 0.391
